Read-outs that look alike come from different tables or passages of the source. Square brackets hold non-standard residues; d marks the D form. Peptide text beside a SMILES is read from it. * marks the point of attachment. ξ: configuration not given here. Phe(3-CF3) = N[C@@H](Cc1cccc(C(F)(F)F)c1)C(=O)O; NMeF = CN[C@@H](Cc1ccccc1)C(=O)O; 3Pal = N[C@@H](Cc1cccnc1)C(=O)O; Cha = N[C@@H](CC1CCCCC1)C(=O)O; Cit = NC(=O)NCCC[C@H](N)C(=O)O; NMeL = CN[C@@H](CC(C)C)C(=O)O; ξP = O=C(O)C1CCCN1; OtBu = CC(C)(C)O*; Sar = CNCC(=O)O
Assay: MDCK monolayer membrane permeability (A→B transport)
Assay type: in vitro ADME, canine
Settings: dog
Experimental: In order to determine the cyclic peptide compounds 9-12 obtained in the above examples, an MDCK model was established to determine their membrane permeability. The MDCK cell line was sourced from Madin Darby canine epithelial cell lines, and the monolayer MDCK cell was the best cytological model to study the in vivo processes such as absorption and reabsorption of drugs in renal tubules. The MDCK cells in a disperse culture flask were digested, and seeded to Millicell CPI at 5×10^4/cm^2; 400 μL of MEM culture solution containing 10% FBS was added to a side A (a luminal side, Apical), and 800 μL of the MEM culture solution was added to a side B (a basolateral side); and the mixture was incubated in an incubator containing 5% CO2 at 37° C. The solution was changed every day. It should be noted that a pipette should not to touch a cell membrane, thereby avoiding damaging the cell layer; and the transmembrane resistance (i.e., trans-epithelial electrical resistance, TEER) was regularly measured by using Millicell2ERS to test the integrity of the cell monolayer.
The A→B transport from the apical end (A) to the basolateral end (B) of the monolayer membrane of the MDCK cells was observed. For the determination of A→B, 450 μL of a drug or a positive control HEPES solution was added to the apical end of the membrane as a feeding cell, and 1300 μL of a blank HEPES solution was added to the basolateral end as a receiving cell. A Transwell plate was placed on a constant-temperature shaker at 37° C. and shaken; after 90 min, a sample solution was extracted respectively from the feeding cell and the receiving cell; acetonitrile was added to precipitate proteins, and then vortexing, centrifuging and transferring were carried out; and the permeance was measured by LC/MS. Based on this permeance, a membrane permeance coefficient (Papp, i.e., apparent permeability, which was a specific evaluation parameter) was calculated. The Papp greater than 1×10^−6 cm/s indicated the absorption of more than 60% of a drug, and the Papp greater than 10×10^−6 cm/s indicated the absorption of more than 80% of drug molecules.

[1] = MDCK A→B, not, read-out: Papp values
[2] = apical to basolateral, MDCK monolayer, 37° C., 90 min, LC/MS, read-out: MDCK Papp(A − B)

| Papp A→B at 90 min [1] [×10⁻⁶ cm/s] | Papp A→B at 90 min [2] [×10⁻⁶ cm/s] | Structure (SMILES) |
| --- | --- | --- |
| > 10 | 11.3 | CC(C)C[C@@H]1NC(=O)CNC(=O)[C@H](CC(N)=O)NC(=O)C2CCCN2C(=O)[C@H]2CCCN2C(=O)[C@H](CCC(=O)OC(C)(C)C)NC(=O)CN(C)C(=O)[C@H](Cc2cccc(C(F)(F)F)c2)NC(=O)[C@H](CC(C)C)N(C)C(=O)[C@H](Cc2ccccc2)N(C)C1=O (stereo partly drawn) [Compound 9] (cyclo(E(OtBu)[dP][ξP]NGL[NMeF][NMeL][Phe(3-CF3)][Sar])) |
|  | 4.8 | CC(C)C[C@@H]1NC(=O)CNC(=O)[C@H](CC(N)=O)NC(=O)C2CCCN2C(=O)[C@H]2CCCN2C(=O)[C@H](CCC(=O)OC(C)(C)C)NC(=O)CN(C)C(=O)[C@H](Cc2cccnc2)NC(=O)[C@H](CC(C)C)N(C)C(=O)[C@H](Cc2ccccc2)N(C)C1=O (stereo partly drawn) [Compound 10] (cyclo([3Pal][Sar]E(OtBu)[dP][ξP]NGL[NMeF][NMeL])) |
| > 10 | 16.2 | CC(C)C[C@@H]1NC(=O)CNC(=O)[C@H](CC(N)=O)NC(=O)C2CCCN2C(=O)[C@H]2CCCN2C(=O)[C@H](CCC(=O)OC(C)(C)C)NC(=O)CN(C)C(=O)[C@H](CC2CCCCC2)NC(=O)[C@H](CC(C)C)N(C)C(=O)[C@H](Cc2ccccc2)N(C)C1=O (stereo partly drawn) [Compound 11] (cyclo([Cha][Sar]E(OtBu)[dP][ξP]NGL[NMeF][NMeL])) |
|  | 0.9 | CC(C)C[C@@H]1NC(=O)CNC(=O)[C@H](CC(N)=O)NC(=O)C2CCCN2C(=O)[C@H]2CCCN2C(=O)[C@H](CCC(=O)OC(C)(C)C)NC(=O)CN(C)C(=O)[C@H](CCCNC(N)=O)NC(=O)[C@H](CC(C)C)N(C)C(=O)[C@H](Cc2ccccc2)N(C)C1=O (stereo partly drawn) [Compound 12] (cyclo([Cit][Sar]E(OtBu)[dP][ξP]NGL[NMeF][NMeL])) |
